{"source": "patent US4826845A", "about": "“3(2H)-pyridazinones and pharmaceutical compositions thereof” (Richter Gedeon Vegyeszeti Gyar T.R., priority 1985, dated 1989)", "key": {"[1]": {"tested_on": "pre- and postsynaptic alpha receptors", "experiment": "Action on the pre- and postsynaptic adrenergic alpha receptors on the stimulated mouse vas deferens", "type": "cell-based", "method": "The method of Hughes et al. [Brit. J. Phamacol. 51, pp. 139-140P (1975)] was used. The preparations suspended in a modified Krebs solution at 31° C. were excited by the field stimulation method [rectangular paired impulses with 1 msec interval, supramaximal potential (70 to 75 V=8 to 9 V/cm) and 100 msec impulse interval, pairs repeated in each 10 sec]. After stimulation, norepinephrine (NE) was dropped into the organ bath and a dose-response curve was taken up. Thus, the effect of both the endogenous norepinephrine liberated by stimulation and the exogenous norepinephrine could be studied before and after adding the substance to be tested."}, "anaesthetized cats [2]": {"tested_on": "anaesthetized cats", "experiment": "Measurement of the hypotensive effect on anaesthetized cats (i.v. screening)", "type": "in vivo, cat", "method": "A tube was introduced into the trachea of cats anaesthetized by the intraperitoneal (i.p.) administration of 35 mg/kg of sodium pentobarbital whereby the spontaneous breathing was supported. On the one side of the animals, the femoral artery and vein were exposed and a polyethylene cannula was introduced in both vessels each. The substances to be tested were administered through the venous cannula. The mean arterial blood pressure was measured by connecting the arterial cannula with a Statham P 23 Db pressure transducer and electromanometer.\nAs a first screening dose, 5 mg/kg of the compounds to be tested were intravenously (i.v.) administered."}, "SH rats": {"tested_on": "SH rats", "experiment": "Subacute treatment of SH rats", "type": "in vivo, rat", "method": "(§1) The systolic blood pressure and heart rate of the animals were indirectly measured by using the tail-cuff method by means of a 5- channel automatized equipment.\nThe subacute experiments were carried out on SH rats by administering daily twice a 3 mg/kg intraperitoneal dose for 14 days."}, "Acute toxicity in mice": {"experiment": "Acute toxicity in mice", "conditions": "mouse, in vivo", "source_text": "Male and female CFY rats and mice were used."}, "[3]": {"tested_on": "postsynaptic alpha1 receptor", "experiment": "Kinetic analysis on rabbit aorta strip preparation: postsynaptic alpha1 receptor antagonism", "type": "cell-based", "method": "Male rabbits with a body-weight of 3 to 3.5 kg were used for these experiments. […] A dose response curve was plotted by using norepinephrine and a dose selected from the steepest interval of the curve was added repeatedly to the bath until obtaining equal responses. Then, the compound to be tested was added and after 5 minutes, the dose series of norepinephrine was repeated. The extent of the inhibition was expressed as percentage."}, "anaesthetized dogs": {"tested_on": "anaesthetized dogs", "experiment": "Hypotensive and heart rate effects on anaesthetized dogs after intravenous or intraduodenal administration", "type": "in vivo, Beagle dog", "method": "(§2) Beagle dogs of both sexes were anaesthetized by the intravenous administration of 40 mg/kg of sodium pentobarbital. A cannula was introduced to the femoral artery and vein each on one side for the intravenous administration of the compounds to be tested as well as for measuring the blood pressure.\nIn an other series of these experiments, the substances were administered through a duodenal tube. Similarly to the experiments carried out on cats, the systemic arterial blood pressure was measured by using an electromanometer and the cardiotachometer was triggered by the heart rate wave sign. […]"}, "[4]": {"tested_on": "conscious renal hypertensive rats", "experiment": "Antihypertensive effect on conscious renal hypertensive rats after acute oral treatment", "type": "in vivo, rat", "source_text": "These experiments were accomplished on conscious spontaneously hypertensive (SH) and renally hypertensive rats.\nas §1"}, "anaesthetized cats [5]": {"tested_on": "anaesthetized cats", "experiment": "Hypotensive and heart rate effects on anaesthetized cats after intravenous or intraduodenal administration", "type": "in vivo, cat", "method": "The cats were anaesthetized by intraperitoneally administering 35 mg/kg of sodium pentobarbital while promoting the spontaneous respiration by the introduction of a trachea cannula. On one side, the femoral vessels are cannulated. The cannula introduced to the femoral vein was used for the intravenous administration of the compounds to be tested. The arterial cannula was connected with a Hellige electromanometer by using a Statham P 23 Db transducer for measuring the mean arterial pressure. The heart rate was continuously registered by means of a cardiotachometer triggered by the pulse wave sign of the electromanometer.\nIn an other series of these experiments, the compound to be tested was administered through a duodenal tube. The compound of Example 3 (or 12) was used in intravenous doses of 0.5, 1.0 and 5.0 mg/kg as well as in intraduodenal doses of 1.25, 5.0 and 10.0 mg/kg."}, "renal artery": {"tested_on": "renal artery", "experiment": "Renal arterial vascular resistance in anaesthetized dogs", "type": "in vivo, Beagle dog", "method": "as §2\nIn an other series of these experiments, the substances were administered through a duodenal tube. Similarly to the experiments carried out on cats, the systemic arterial blood pressure was measured by using an electromanometer and the cardiotachometer was triggered by the heart rate wave sign.\nThe renal artery on one side was exposed retroperitoneally and fitted with an electromagnetic flow-meter head for measuring the blood flow of the renal arterial vascular bed and for determining the local vascular resistance."}, "[6]": {"molecular_target": "T1, potential-mediated calcium channel (Rattus norvegicus, UniProt P22002)", "T1 construct": "from tissue; host or cells: isolated rat portal vein", "T1 sequence (P22002 whole entry)": "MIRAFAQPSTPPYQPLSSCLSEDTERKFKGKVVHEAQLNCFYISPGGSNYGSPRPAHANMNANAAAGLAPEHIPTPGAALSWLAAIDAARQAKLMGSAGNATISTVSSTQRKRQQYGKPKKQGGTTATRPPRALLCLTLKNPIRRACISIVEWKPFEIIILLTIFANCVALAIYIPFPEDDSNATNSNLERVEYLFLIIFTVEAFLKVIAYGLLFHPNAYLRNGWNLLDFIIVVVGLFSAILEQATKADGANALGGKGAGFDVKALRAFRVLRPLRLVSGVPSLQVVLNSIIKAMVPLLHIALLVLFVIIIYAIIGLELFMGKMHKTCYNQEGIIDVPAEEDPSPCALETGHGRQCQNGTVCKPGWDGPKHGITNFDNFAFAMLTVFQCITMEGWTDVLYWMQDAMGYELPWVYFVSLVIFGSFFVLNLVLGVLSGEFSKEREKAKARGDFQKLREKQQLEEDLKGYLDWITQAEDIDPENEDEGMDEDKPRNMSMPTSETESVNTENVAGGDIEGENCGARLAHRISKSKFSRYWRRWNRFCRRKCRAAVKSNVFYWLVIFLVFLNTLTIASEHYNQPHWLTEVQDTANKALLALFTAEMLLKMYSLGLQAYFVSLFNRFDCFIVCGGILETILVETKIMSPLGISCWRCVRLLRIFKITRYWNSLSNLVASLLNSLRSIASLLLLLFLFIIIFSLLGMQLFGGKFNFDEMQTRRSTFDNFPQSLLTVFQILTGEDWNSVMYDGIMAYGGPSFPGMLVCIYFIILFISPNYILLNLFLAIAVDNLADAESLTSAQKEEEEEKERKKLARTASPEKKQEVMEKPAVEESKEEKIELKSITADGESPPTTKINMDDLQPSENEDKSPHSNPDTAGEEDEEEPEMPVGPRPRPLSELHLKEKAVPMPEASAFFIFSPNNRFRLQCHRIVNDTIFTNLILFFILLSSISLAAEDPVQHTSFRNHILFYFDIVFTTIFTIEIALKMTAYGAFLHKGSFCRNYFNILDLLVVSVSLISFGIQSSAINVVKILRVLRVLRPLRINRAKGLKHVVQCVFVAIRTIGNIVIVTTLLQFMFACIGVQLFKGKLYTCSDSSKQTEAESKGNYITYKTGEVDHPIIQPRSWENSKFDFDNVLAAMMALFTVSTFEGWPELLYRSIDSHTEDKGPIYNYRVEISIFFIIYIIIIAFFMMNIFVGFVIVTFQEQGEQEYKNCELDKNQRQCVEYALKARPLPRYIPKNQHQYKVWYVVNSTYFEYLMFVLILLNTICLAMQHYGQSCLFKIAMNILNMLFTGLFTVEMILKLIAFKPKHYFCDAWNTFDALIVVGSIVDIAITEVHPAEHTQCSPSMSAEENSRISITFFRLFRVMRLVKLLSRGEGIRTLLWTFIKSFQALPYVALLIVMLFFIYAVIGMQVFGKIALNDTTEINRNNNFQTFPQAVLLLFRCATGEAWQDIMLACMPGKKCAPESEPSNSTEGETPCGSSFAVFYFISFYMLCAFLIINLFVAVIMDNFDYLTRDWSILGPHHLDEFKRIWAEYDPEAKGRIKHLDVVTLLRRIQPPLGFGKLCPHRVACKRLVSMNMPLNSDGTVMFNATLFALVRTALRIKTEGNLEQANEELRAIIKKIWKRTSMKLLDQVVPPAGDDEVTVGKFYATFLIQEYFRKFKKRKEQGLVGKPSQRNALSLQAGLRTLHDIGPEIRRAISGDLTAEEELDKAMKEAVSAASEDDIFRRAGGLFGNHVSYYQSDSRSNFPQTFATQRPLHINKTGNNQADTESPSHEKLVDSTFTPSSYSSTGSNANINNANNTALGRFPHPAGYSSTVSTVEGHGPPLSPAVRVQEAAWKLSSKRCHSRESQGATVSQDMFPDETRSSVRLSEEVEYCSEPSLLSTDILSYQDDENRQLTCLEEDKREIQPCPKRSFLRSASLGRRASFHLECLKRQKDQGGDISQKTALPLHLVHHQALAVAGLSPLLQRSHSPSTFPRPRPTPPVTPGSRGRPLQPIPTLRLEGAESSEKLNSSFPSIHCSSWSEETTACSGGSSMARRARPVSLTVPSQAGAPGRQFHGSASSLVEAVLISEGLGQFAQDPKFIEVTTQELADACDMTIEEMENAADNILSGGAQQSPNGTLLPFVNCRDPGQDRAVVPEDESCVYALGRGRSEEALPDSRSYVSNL", "T1 sequence (P54290 25-944 partner limits assumed)": "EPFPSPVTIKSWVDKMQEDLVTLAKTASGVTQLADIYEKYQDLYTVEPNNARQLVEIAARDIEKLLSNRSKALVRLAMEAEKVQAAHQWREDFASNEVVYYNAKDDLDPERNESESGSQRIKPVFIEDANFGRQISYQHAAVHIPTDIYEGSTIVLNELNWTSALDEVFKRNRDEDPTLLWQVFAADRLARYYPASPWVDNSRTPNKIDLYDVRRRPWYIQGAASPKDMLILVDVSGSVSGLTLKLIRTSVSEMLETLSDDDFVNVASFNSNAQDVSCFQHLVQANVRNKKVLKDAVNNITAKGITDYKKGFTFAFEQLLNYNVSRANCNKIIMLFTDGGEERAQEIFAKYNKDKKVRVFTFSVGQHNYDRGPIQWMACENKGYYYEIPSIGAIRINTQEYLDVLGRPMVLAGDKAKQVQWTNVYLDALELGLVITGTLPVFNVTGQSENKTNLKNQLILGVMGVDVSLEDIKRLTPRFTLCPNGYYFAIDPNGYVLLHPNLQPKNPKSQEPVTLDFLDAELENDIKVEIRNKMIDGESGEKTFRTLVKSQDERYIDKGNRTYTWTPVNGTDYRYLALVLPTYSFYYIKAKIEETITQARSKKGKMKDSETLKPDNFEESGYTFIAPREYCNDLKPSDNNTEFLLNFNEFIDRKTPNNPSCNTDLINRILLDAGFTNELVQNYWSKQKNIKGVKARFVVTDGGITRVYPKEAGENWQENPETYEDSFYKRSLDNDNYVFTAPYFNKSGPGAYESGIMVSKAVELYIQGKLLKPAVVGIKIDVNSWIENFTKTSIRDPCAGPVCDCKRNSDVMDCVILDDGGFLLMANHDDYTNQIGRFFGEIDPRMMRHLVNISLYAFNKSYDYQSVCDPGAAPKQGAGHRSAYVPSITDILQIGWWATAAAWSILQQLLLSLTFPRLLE", "T1 sequence (P54290 945-1091 partner limits assumed)": "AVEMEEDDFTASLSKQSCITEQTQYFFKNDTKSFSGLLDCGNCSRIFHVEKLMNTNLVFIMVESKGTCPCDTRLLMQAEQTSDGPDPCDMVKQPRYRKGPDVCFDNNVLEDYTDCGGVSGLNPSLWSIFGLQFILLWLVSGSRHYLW", "experiment": "Calcium-antagonism on isolated portal vein: potential-mediated calcium channel", "type": "cell-based", "conditions": "rat portal vein, 80 millimoles KCl, 37° C.; read-out: Inhibition of the calcium channel, potential-mediated, IC50", "method": "The calcium-antagonism of the compounds of the invention was studied on an isolated vessel preparation based on the work of M. Fiol de Cuneo et al. [Arch. Int. Pharmacodyn.\nMale CFY rats with a body-weight of 150 to 200 g were bled by decapitation and the portal vein was immediately prepared starting from the hepatic portal. The vessel was longitudinally incised, bound to a transducer registering the contractions and incubated under a tension of 1 g at 37° C. in a calcium-free Krebs-Ringer bicarbonate solution aerated with carbogen. After an equilibration lasting for 30 minutes, the functioning of the receptor-mediated and the K^+ -depolarisation-mediated calcium channels, respectively, were investigated.\nFor investigating the potential-mediated calcium channel, the vein placed in the calcium-free Krebs-Ringer solution was washed by adding and then by removing 80 millimoles of potassium chloride while maintaining the isotania until no contraction appeared on repeatedly adding potassium chloride.\nAll measurements were carried out at 37° C. while bubbling through carbogen."}}, "note": "Structures can show the parent of a compound that is named as a salt. Where two headings read alike, the source gives them in different places.", "data": [{"smiles": "O=c1cccnn1CCCNCC1COc2ccccc2O1", "note": "(stereo not drawn) [Example 3 (or 12), 2-[3-(benzo[1,4]dioxan-2-yl-methylamino)-1-propyl]-3(2H)-pyridazinone hydrochloride]", "values": [{"measurement": "Inhibition of the stimulation", "setting": "[1]; concentration 10^-7 mole", "result": 0, "unit": "%"}, {"measurement": "Inhibition of the stimulation", "setting": "[1]; concentration 10^-8 mole", "result": 0, "unit": "%"}, {"measurement": "Mean arterial pressure decrease", "setting": "anaesthetized cats [2]; anaesthetized cats, 5.0 mg/kg i.v.", "result": -95, "unit": "Hgmm"}, {"measurement": "blood pressure lowering action (in words)", "setting": "anaesthetized cats [2]; intravenous, summary of Table 1", "result": "particularly expressed"}, {"measurement": "effect on the following days; tachyphylaxia (in words)", "setting": "SH rats; 3 mg/kg i.p. twice daily for 14 days", "result": "not altered on the following days of treatment. No signs of tachyphylaxia were observed"}, {"measurement": "maximum antihypertensive effect", "setting": "SH rats; 3 mg/kg i.p. twice daily, 10th day", "result": 22, "unit": "%"}, {"measurement": "LD50 at 336 h", "setting": "Acute toxicity in mice; ip, female, i.p., read-out: LD50 i.p.", "result": 160, "unit": "mg/kg"}, {"measurement": "LD50 at 336 h", "setting": "Acute toxicity in mice; ip, male, i.p., read-out: LD50 i.p.", "result": 160, "unit": "mg/kg"}, {"measurement": "LD50 at 336 h", "setting": "Acute toxicity in mice; po, female, p.o., read-out: LD50 p.o.", "result": 200, "unit": "mg/kg"}, {"measurement": "LD50 at 336 h", "setting": "Acute toxicity in mice; po, male, p.o., read-out: LD50 p.o.", "result": 300, "unit": "mg/kg"}, {"measurement": "pA2", "setting": "[3]; negative logarithm of the molar antagonist concentration inhibiting the agonist to 50%, norepinephrine agonist, 5 min", "result": 7.26}, {"measurement": "Slope of the curve", "setting": "[3]; rabbit aorta, norepinephrine", "result": -1.26}, {"measurement": "decrease in the systemic arterial blood pressure", "setting": "anaesthetized dogs; 1.0 mg/kg i.v.", "result": 50, "unit": "%"}, {"measurement": "half-life of the effect", "setting": "anaesthetized dogs; 1.0 mg/kg i.v.", "result": 30, "unit": "min"}, {"measurement": "heart rate effect (in words)", "setting": "anaesthetized dogs; 1.0 mg/kg i.v.", "result": "bradycardia was observed during the first 5 minutes, then the alteration was not significant"}, {"measurement": "decay of the hypotensive effect (in words)", "setting": "anaesthetized dogs; 1.0 mg/kg intraduodenal", "result": "only halved at the end of the first hour"}, {"measurement": "decrease in the systemic arterial blood pressure", "setting": "anaesthetized dogs; 1.0 mg/kg intraduodenal", "result": 30, "unit": "%"}, {"measurement": "tachycardia", "setting": "anaesthetized dogs; 1.0 mg/kg intraduodenal", "result": "about 20%"}, {"measurement": "time maximum effect remained constant", "setting": "anaesthetized dogs; 1.0 mg/kg intraduodenal", "result": 30, "unit": "min"}, {"measurement": "time of maximum effect", "setting": "anaesthetized dogs; 1.0 mg/kg intraduodenal", "result": 5, "unit": "min"}, {"measurement": "hypotensive activity compared with verapamil (in words)", "setting": "anaesthetized dogs; any of the two routes", "result": "higher than that of verapamil"}, {"measurement": "hypotensive activity compared with prazosine (in words)", "setting": "anaesthetized dogs; intraduodenal", "result": "reached that of prazosine"}, {"measurement": "hypotensive effect (in words)", "setting": "anaesthetized dogs; intravenous and intraduodenal", "result": "strong hypotensive effect"}, {"measurement": "maximum antihypertensive effect", "setting": "[4]; 3.125 mg/kg p.o.", "result": 16, "unit": "%"}, {"measurement": "maximum antihypertensive effect", "setting": "[4]; 12.5 mg/kg p.o.", "result": 24, "unit": "%"}, {"measurement": "antihypertensive effect in the 8th hour (in words)", "setting": "[4]; 25 mg/kg p.o., 8th hour", "result": "significant even in the 8th hour"}, {"measurement": "tachycardia", "setting": "[4]; p.o.", "result": 18, "unit": "%"}, {"measurement": "time of disappearance of tachycardia (in words)", "setting": "[4]; p.o.", "result": "disappeared in the 2nd to 3rd hours after the treatment"}, {"measurement": "duration of hypotension", "setting": "anaesthetized cats [5]; 0.5 mg/kg i.v.", "result": 60, "unit": "min"}, {"measurement": "half-life of hypotension", "setting": "anaesthetized cats [5]; 0.5 mg/kg i.v.", "result": "about 30 minutes"}, {"measurement": "heart rate effect (in words)", "setting": "anaesthetized cats [5]; 0.5 mg/kg i.v.", "result": "accompanied by bradycardia"}, {"measurement": "hypotension", "setting": "anaesthetized cats [5]; 0.5 mg/kg i.v.", "result": 50, "unit": "%"}, {"measurement": "maximum of the hypotension, intravenous versus intraduodenal", "setting": "anaesthetized cats [5]; 1.0 mg/kg i.v. versus 1.25 mg/kg intraduodenal", "result": "nearly equal"}, {"measurement": "decrease in the blood pressure", "setting": "anaesthetized cats [5]; 1.25 mg/kg intraduodenal", "result": 50, "unit": "%"}, {"measurement": "duration of hypotension (detected up to)", "setting": "anaesthetized cats [5]; 1.25 mg/kg intraduodenal", "result": "up to 2 hours"}, {"measurement": "time of development of hypotension", "setting": "anaesthetized cats [5]; 1.25 mg/kg intraduodenal", "result": "≤ 15", "unit": "min"}, {"measurement": "heart rate effect (in words)", "setting": "anaesthetized cats [5]; intraduodenal", "result": "significantly diminished"}, {"measurement": "peripheral vasodilatory action in the renal vascular bed compared with prazosine (in words)", "setting": "renal artery", "result": "reached or eventually surpassed the activity of prazosine"}, {"measurement": "peripheral vasodilatory action in the renal vascular bed compared with verapamil (in words)", "setting": "renal artery", "result": "stronger effects than verapamil"}, {"measurement": "decrease in resistance of the renal artery", "setting": "renal artery; 1 mg/kg i.v.", "result": "about 40%"}, {"measurement": "decrease in resistance of the renal artery", "setting": "renal artery; 1.0 mg/kg intraduodenal", "result": "about 40%"}, {"measurement": "IC50", "setting": "[6]", "result": 0.5, "unit": "µM"}]}]}
